{"source": "patent US20250186433A1", "about": "“ACSS2 INHIBITORS AND METHODS OF USE THEREOF” (EpiVario, Inc., priority 2017, published 2025)", "key": {"ACSS2 [1]": {"molecular_target": "T1, ACSS2 (Homo sapiens, UniProt Q9NR19)", "T1 sequence (Q9NR19 whole entry)": "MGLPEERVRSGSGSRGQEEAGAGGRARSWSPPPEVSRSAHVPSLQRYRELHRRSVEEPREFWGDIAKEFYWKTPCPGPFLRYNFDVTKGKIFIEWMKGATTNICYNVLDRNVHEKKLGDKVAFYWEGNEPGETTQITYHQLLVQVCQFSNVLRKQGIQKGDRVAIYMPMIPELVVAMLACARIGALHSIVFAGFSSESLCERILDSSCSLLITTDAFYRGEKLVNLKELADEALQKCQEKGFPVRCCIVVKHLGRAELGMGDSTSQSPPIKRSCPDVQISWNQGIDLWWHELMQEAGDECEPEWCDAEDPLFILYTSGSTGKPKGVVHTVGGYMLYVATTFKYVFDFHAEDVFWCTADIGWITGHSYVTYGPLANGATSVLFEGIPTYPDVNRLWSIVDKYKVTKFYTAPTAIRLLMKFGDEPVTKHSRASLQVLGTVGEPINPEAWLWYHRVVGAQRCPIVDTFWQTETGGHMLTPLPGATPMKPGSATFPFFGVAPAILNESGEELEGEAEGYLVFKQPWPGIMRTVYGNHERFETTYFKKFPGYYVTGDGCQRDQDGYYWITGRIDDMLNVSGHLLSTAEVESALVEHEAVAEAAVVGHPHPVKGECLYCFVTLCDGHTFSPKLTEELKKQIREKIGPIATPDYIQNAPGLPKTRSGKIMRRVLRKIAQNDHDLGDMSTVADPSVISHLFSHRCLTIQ", "assay": "Acyl-CoA synthetases selectivity panel: ACSS2", "assay_type": "biochemical", "set-up": "purchased Cusabio, China", "conditions": "human recombinant protein, substrate acetate, AMP readout by HPLC; read-out: HPLC based activity assays IC50 (UM) ACSS2", "source_text": "(§1) The biochemical assays for testing the selectivity of the compounds according to this invention, were done using human recombinant proteins (Cusabio, China). The readout of the assays was AMP levels, the […] of the reactions, by HPLC method. The acyl substrates (Sigma-Aldrich) of the assays were as followed: ACSS1/ACSS2—Acetate, AACS-Acetoacetyl, ACSF2—Octanoate and ACSL5—Palmitate. The protein in this panel include ACSS1, the closest homolog of ACSS2, in addition to representative short/medium/long chain acyl-CoA syntatases."}, "ACSL5": {"molecular_target": "T2, ACSL5 (Homo sapiens, UniProt Q9ULC5)", "T2 construct": "purchased Cusabio, China", "T2 sequence (Q9ULC5 1-683)": "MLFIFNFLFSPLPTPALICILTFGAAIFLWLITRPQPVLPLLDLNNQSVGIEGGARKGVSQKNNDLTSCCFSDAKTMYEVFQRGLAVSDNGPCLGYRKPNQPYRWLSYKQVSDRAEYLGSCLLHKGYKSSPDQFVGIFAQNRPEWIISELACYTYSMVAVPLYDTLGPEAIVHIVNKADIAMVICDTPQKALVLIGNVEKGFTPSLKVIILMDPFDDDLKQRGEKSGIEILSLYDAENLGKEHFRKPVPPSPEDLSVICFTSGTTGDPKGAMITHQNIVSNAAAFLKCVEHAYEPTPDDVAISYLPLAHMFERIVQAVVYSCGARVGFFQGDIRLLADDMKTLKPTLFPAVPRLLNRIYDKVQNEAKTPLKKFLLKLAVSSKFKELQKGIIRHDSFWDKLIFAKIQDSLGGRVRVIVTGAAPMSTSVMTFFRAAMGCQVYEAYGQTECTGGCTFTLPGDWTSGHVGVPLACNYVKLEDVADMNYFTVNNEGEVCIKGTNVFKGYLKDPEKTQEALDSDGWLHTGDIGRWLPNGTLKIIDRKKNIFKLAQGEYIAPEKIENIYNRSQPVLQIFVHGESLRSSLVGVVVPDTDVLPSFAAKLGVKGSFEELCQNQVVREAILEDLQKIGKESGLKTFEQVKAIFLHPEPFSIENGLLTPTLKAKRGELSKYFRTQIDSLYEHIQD", "assay": "Acyl-CoA synthetases selectivity panel: ACSL5", "assay_type": "biochemical", "conditions": "human recombinant protein, substrate palmitate, AMP readout by HPLC; read-out: HPLC based activity assays IC50 (UM) ACSL5", "source_text": "as §1"}, "ACSS1": {"molecular_target": "T3, ACSS1 (Homo sapiens, UniProt Q9NUB1)", "T3 construct": "purchased Cusabio, China", "T3 sequence (Q9NUB1 38-689)": "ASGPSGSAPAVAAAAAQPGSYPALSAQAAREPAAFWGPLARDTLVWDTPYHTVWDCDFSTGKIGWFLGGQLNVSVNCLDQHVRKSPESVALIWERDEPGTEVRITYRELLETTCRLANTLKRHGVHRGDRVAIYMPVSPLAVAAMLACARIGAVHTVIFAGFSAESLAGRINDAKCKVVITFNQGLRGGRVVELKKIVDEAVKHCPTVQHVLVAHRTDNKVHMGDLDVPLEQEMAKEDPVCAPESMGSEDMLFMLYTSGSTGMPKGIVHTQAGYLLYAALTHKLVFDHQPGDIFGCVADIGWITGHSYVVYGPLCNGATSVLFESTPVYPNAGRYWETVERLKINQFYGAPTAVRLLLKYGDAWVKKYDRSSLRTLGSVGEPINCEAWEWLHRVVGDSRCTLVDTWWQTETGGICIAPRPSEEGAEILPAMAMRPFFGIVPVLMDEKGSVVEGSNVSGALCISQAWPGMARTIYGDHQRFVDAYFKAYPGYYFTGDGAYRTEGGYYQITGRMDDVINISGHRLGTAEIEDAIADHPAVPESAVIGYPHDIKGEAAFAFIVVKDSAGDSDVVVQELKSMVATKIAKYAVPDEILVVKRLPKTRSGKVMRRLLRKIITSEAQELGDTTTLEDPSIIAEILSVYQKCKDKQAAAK", "assay": "Acyl-CoA synthetases selectivity panel: ACSS1", "assay_type": "biochemical", "conditions": "human recombinant protein, substrate acetate, AMP readout by HPLC; read-out: HPLC based activity assays IC50 (UM) ACSS1", "source_text": "as §1"}, "ACSS2 [2]": {"molecular_target": "T1, ACSS2", "assay": "Binding to recombinant ACSS2 protein by Label Free MST", "conditions": "for Kd: read-out: Kd [uM] Fluorescence", "source_text": "Binding of ACSS2 inhibitor to recombinant ACSS2 protein by Label Free MST. MicroScale Thermophoresis (MST) is an optical fluorescent method that records the changes in fluorescence of a target molecule as a function of temperature and the concentration of the cognate ligand molecule. The binding of small-molecules to the target proteins lead to changes in the fluorescence that can be measured and translated into binding Kd."}, "ACSS2 [3]": {"molecular_target": "T1, ACSS2", "assay": "Thermal stabilization of recombinant ACSS2 protein (Nano-DSF)", "assay_type": "binding", "source_text": "Thermal stabilization of recombinant ACSS2 protein by ACSS2 inhibitors. Interaction between the compound and recombinant ACSS2 protein was done by non-labeled Nano-DSF technic using the parameters described below. NanoDSF is a modified differential scanning fluorimetry method to determine protein stability that uses tryptophan or tyrosine fluorescence to monitor protein unfolding. The binding of compound to the protein leads to thermal stabilization that is quantified as the delta in the thermal melting points."}}, "note": "Read-outs that look alike come from different tables or passages of the source."}
{"smiles": "COC(=O)c1cccc(N2N=C(C)C(C(=O)Nc3cccc(C(C)(F)F)c3)C2=O)c1", "note": "(stereo not shown) [compound 261, methyl 3-(4-((3-(1,1-difluoroethyl)phenyl)carbamoyl)-3-methyl-5-oxo-4,5-dihydro-1H-pyrazol-1-yl)benzoate]", "values": [{"measurement": "IC50", "setting": "ACSS2 [1]", "value": "< 1", "unit": "nM"}, {"measurement": "IC50", "setting": "ACSL5", "value": "> 100000", "unit": "nM"}, {"measurement": "IC50", "setting": "ACSS1", "value": "1000 to 10000", "unit": "nM"}, {"measurement": "Kd", "setting": "ACSS2 [2]; Buffer A (no ATP, no CoA)", "value": "0.46 ± 0.21", "unit": "µM"}, {"measurement": "Kd", "setting": "ACSS2 [2]; Buffer B (+ATP), 0.3 mM ATP", "value": "0.03 ± 0.01", "unit": "µM"}, {"measurement": "Kd", "setting": "ACSS2 [2]; Buffer C (+ATP, +CoA), 0.3 mM ATP, 0.01 mM CoA", "value": "0.04 ± 0.02", "unit": "µM"}, {"measurement": "Kd", "setting": "ACSS2 [2]; Buffer D (+CoA), 0.01 mM CoA", "value": "0.61 ± 0.17", "unit": "µM"}, {"measurement": "reduction of binding Kd when ATP was added to the buffer", "setting": "ACSS2 [2]; Label Free MST", "value": 10, "unit": "fold"}, {"measurement": "thermal shift in the melting temperature of ACSS2", "setting": "ACSS2 [3]; 0.03 mg/ml ACSS2, compound at different concentrations", "value": "dose-dependent thermal shift in the melting temperature of ACSS2"}, {"measurement": "thermal shift in the presence of ATP or ATP and CoA versus buffer alone", "setting": "ACSS2 [3]; 0.3 mM ATP, 0.3 mM ATP + 0.01 mM CoA", "value": "higher in the presence of ATP or ATP and CoA"}]}
